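Values below derive from 48-hour exposures of cells grown in 96-well plates, with endpoints linearly interpolated between the two concentrations bracketing the appropriate inhibition level. At the GI50, growth is halved. TGI: total growth inhibition.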
What was measured:
Assay in all cases: NCI-60 cell line screen, 48 h
ACHN renal = test system: ACHN renal
BT-549 breast = test system: BT-549 breast
COLO 205 colon = test system: COLO 205 colon
HS 578T breast = test system: HS 578T breast
MALME-3M melanoma = test system: MALME-3M melanoma
SF-539 CNS = test system: SF-539 CNS
SK-MEL-28 melanoma = test system: SK-MEL-28 melanoma
SNB-19 CNS = test system: SNB-19 CNS
SNB-75 CNS = test system: SNB-75 CNS
SW-620 colon = test system: SW-620 colon

Compound	GI50 (ACHN renal) [µM]	TGI (ACHN renal) [µM]	GI50 (BT-549 breast) [µM]	TGI (BT-549 breast) [µM]	GI50 (COLO 205 colon) [µM]	TGI (COLO 205 colon) [µM]	GI50 (HS 578T breast) [µM]	TGI (HS 578T breast) [µM]	GI50 (MALME-3M melanoma) [µM]	TGI (MALME-3M melanoma) [µM]	GI50 (SF-539 CNS) [µM]	TGI (SF-539 CNS) [µM]	GI50 (SK-MEL-28 melanoma) [µM]	TGI (SK-MEL-28 melanoma) [µM]	GI50 (SNB-19 CNS) [µM]	TGI (SNB-19 CNS) [µM]	GI50 (SNB-75 CNS) [µM]	TGI (SNB-75 CNS) [µM]	GI50 (SW-620 colon) [µM]	TGI (SW-620 colon) [µM]
COc1ccc(/C=C/C(=O)c2ccc(Nc3ncnc4ccccc34)cc2)cc1OC	13.6	> 100	3.22	32	14.8	> 100	15.3	> 100	13.8	> 100	7.73	48.8	13.7	93.5	11.5	> 100	5.19	48.3	3.51	> 100
C#Cc1cccc(NC(=O)Nc2ccc(NC(=O)CCl)cc2)c1	14	26	11.9	24.1	20.5	60.3	17.8	81.7	12.1	23.9	13.3	25	> 82.5	> 82.5	15.7	40.8	8.39	19.1	14.9	33.2
O=C(CNC(=O)c1cccc2ccccc12)Nc1ccccc1Oc1cccc(O)c1	17.4	> 25	> 25	> 25	14.7	> 25	5.79	> 25	5.88	> 25	4.06	13.8	> 25	> 25	8.73	> 25	3.3	> 25	3.12	> 25
COC(=O)Nc1ccc2ccc3c(NC(=O)OC)ccc4ccc1c2c43 (tested in a mixture with another compound)	6.68	15	5.5	14	6.08	30.5	9.01	40.4	7.43	> 50	6.76	17.8	35.2	> 50	13.1	> 50	12.6	> 50	3.9	> 50
CCCCCC(=O)N1c2ccccc2NC2=C(C(=O)CC(c3ccc(OC)c(OC)c3)C2)C1c1ccc(C(F)(F)F)cc1 (stereo not given)	> 100	> 100	> 100	> 100	> 100	> 100	> 100	> 100	> 100	> 100	> 100	> 100	> 100	> 100	> 100	> 100	15.3	> 100	> 100	> 100
N#Cc1c(NC(=O)c2cccs2)[n+]([O-])c2ccccc2[n+]1[O-]	> 100	> 100	> 100	> 100	> 100	> 100	95.9	> 100	96.2	> 100	> 100	> 100	> 100	> 100	> 100	> 100	49.5	> 100	> 100	> 100
O=C(Nc1ccccc1Cl)c1cnc2ccc(C3CCNCC3)cn12	1.02	> 46.5	> 73.7	> 100	2.85	25	0.292	2.92	22.1	> 94.5	4.94	> 100	18.4	43.3	> 87.7	> 100	0.15	5.02	> 100	> 100
C[C@]12CC[C@H]3[C@@H](CCC4=CC(=O)CC[C@@H]43)[C@@H]1CC[C@@H]2OC1(O)C(=O)c2ccccc2C1=O	–	79.4	–	> 100	–	53	–	> 100	–	> 100	–	> 100	–	> 100	–	> 100	–	> 100	–	> 100
CCOC(=O)C1CCC/C1=N\N=C(N)N (stereo not given) (tested in a mixture with another compound)	–	> 100	–	> 100	–	> 100	–	> 100	–	> 100	–	> 100	–	> 100	–	> 100	–	> 100	–	> 100
Cc1ccc(NC(=O)c2ccnc(C(F)(F)F)c2)cc1-c1cc(OCCO)nc(N2CCOCC2)c1	2.99	80.1	5.87	22.9	0.445	11.8	2.59	23.7	0.108	0.66	2.55	11.8	0.377	11.3	3.64	19.2	1.46	7.29	1.55	63.8
Cc1sc2ncnc(Sc3nc4ccccc4[nH]3)c2c1C	24.4	> 100	27.2	> 100	33.5	> 100	18.4	67.6	15.6	80.1	38.4	> 100	23.4	74.7	47	> 100	1.52	27	42.3	> 100
Clc1nc(Cl)c2ncn(C/C=C\Cn3cnc4c(Cl)nc(Cl)nc43)c2n1	1.97	3.46	2.03	5.01	2.09	4.82	3.01	6.12	2.34	4.26	2.49	5.97	1.94	3.68	3.13	10.1	2.73	7.91	1.41	2.99
